# Assay results as given in the NIST ThermoML archive (doi:10.1016/j.fluid.2007.07.023).
# Numbers after ± are expanded uncertainties.
# What was measured:
# [1] = refractive index (Na D-line) (dimensionless); conditions: 101.33 kPa, Liquid, Standard Abbe refractometry
# [2] = 101.33 kPa, Liquid
Compound,refractive index ([1]; 293.15 K),mass density ([2]; 293.15 K),further results
Cc1ccccc1 [toluene],1.496 ± 0.0007,866.78 ± 0.89 kg/m3,–
CCCCCCCC [octane],–,–,refractive index ([1]; 298.15 K): 1.3946 ± 0.0007; mass density ([2]; 298.15 K): 698.49 ± 0.71 kg/m3
NC1CCCCC1 [cyclohexylamine],–,–,refractive index ([1]; 288.15 K): 1.4624 ± 0.0007; mass density ([2]; 303.15 K): 858.2 ± 0.91 kg/m3
Nc1ccccc1 [aniline],1.5962 ± 0.0007,1021.72 ± 1.6 kg/m3,–
